Source: the kinase profiling compilation of Christmann-Franck et al. (2016)

What was measured:
Assay in all cases: radiometric filter-binding kinase assay, Kinase HotSpot
Conditions in all cases: compound 0.5 µM; ATP 10 µM
ABL1 (human) = ABL1 (human) (UniProt P00519)
CDK3 CCNE1 (human) = CDK3 CCNE1 (human) (UniProt Q00526+P24864)
PLK2 (human) = PLK2 (human) (UniProt Q9NYY3)
AURKC (human) = AURKC (human) (UniProt Q9UQB9)
CDK7 CCNH MNAT1 (human) = CDK7 CCNH MNAT1 (human) (UniProt P50613+P51948+P51946)
ROS1 (human) = ROS1 (human) (UniProt P08922)
EPHA1 (human) = EPHA1 (human) (UniProt P21709)
MAP3K5 (human) = MAP3K5 (human) (UniProt Q99683)
LTK (human) = LTK (human) (UniProt P29376)
CDK1 CCNB1 (human) = CDK1 CCNB1 (human) (UniProt P06493+P14635)
MAP3K9 (human) = MAP3K9 (human) (UniProt P80192)
DYRK4 (human) = DYRK4 (human) (UniProt Q9NR20)
FLT1 (human) = FLT1 (human) (UniProt P17948)
NEK4 (human) = NEK4 (human) (UniProt P51957)
CSNK1G3 (human) = CSNK1G3 (human) (UniProt Q9Y6M4)
RAF1 (human) = RAF1 (human) (UniProt P04049)
IGF1R (human) = IGF1R (human) (UniProt P08069)
PIM2 (human) = PIM2 (human) (UniProt Q9P1W9)
GRK6 (human) = GRK6 (human) (UniProt P43250)
RIPK2 (human) = RIPK2 (human) (UniProt O43353)
MST4 (human) = MST4 (human) (UniProt Q9P289)
SRPK1 (human) = SRPK1 (human) (UniProt Q96SB4)
BTK (human) = BTK (human) (UniProt Q06187)
INSRR (human) = INSRR (human) (UniProt P14616)
DYRK1A (human) = DYRK1A (human) (UniProt Q13627)
BLK (human) = BLK (human) (UniProt P51451)
KDR (human) = KDR (human) (UniProt P35968)
BMX (human) = BMX (human) (UniProt P51813)
GRK5 (human) = GRK5 (human) (UniProt P34947)
PRKCI (human) = PRKCI (human) (UniProt P41743)
CSNK1G2 (human) = CSNK1G2 (human) (UniProt P78368)
LRRK2 (human) = LRRK2 (human) (UniProt Q5S007)
RPS6KB1 (human) = RPS6KB1 (human) (UniProt P23443)
MAP4K4 (human) = MAP4K4 (human) (UniProt O95819)
FES (human) = FES (human) (UniProt P07332)
STK10 (human) = STK10 (human) (UniProt O94804)
PAK6 (human) = PAK6 (human) (UniProt Q9NQU5)
TSSK1B (human) = TSSK1B (human) (UniProt Q9BXA7)
MAPK8 (human) = MAPK8 (human) (UniProt P45983)
TAOK3 (human) = TAOK3 (human) (UniProt Q9H2K8)
DMPK (human) = DMPK (human) (UniProt Q09013)
NEK3 (human) = NEK3 (human) (UniProt P51956)

SRPK1 (human), sequence (Q96SB4 whole entry, looked up): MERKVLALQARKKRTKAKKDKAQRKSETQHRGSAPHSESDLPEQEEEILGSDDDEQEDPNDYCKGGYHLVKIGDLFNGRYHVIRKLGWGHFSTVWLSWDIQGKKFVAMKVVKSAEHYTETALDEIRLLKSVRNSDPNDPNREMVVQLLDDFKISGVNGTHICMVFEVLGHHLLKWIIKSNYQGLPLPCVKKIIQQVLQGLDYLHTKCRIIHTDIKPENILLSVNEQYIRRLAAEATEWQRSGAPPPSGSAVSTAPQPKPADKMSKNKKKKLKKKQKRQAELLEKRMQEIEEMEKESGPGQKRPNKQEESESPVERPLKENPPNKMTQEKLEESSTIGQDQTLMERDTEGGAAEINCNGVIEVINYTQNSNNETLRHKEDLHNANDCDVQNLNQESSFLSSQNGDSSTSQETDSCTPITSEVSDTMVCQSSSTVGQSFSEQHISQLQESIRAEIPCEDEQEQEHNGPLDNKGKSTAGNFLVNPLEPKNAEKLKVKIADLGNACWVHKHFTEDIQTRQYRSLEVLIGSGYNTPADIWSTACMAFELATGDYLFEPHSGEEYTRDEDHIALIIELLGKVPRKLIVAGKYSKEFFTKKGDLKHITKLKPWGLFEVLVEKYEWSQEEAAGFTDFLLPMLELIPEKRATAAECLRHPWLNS
ABL1 (human), sequence (P00519 whole entry, looked up): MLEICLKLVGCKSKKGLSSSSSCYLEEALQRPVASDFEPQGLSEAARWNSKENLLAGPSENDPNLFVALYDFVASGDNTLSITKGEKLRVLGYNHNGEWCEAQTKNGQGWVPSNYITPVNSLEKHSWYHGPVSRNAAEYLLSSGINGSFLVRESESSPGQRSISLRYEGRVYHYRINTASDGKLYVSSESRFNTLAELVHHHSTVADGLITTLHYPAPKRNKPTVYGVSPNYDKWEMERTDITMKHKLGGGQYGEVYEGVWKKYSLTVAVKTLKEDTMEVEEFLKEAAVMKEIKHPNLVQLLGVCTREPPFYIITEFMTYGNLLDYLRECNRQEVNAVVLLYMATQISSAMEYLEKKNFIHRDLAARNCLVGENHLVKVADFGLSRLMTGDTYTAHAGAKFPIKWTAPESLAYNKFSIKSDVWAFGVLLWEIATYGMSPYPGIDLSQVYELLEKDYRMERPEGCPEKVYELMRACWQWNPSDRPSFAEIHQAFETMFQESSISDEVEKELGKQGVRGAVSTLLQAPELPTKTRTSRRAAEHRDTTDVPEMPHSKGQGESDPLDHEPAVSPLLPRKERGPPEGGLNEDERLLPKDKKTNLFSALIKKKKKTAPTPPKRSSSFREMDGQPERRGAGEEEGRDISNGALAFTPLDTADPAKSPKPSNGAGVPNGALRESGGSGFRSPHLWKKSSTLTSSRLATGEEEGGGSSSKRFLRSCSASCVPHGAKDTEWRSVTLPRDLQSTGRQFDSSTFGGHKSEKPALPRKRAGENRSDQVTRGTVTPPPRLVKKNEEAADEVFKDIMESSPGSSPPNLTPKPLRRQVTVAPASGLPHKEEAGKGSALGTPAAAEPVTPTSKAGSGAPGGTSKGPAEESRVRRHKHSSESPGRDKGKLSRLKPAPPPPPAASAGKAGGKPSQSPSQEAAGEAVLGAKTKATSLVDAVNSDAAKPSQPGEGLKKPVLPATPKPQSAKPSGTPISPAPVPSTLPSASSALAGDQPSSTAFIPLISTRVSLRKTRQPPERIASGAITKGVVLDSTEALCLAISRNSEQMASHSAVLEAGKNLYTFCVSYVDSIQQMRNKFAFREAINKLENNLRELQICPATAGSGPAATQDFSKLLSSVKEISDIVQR
FES (human), sequence (P07332 whole entry, looked up): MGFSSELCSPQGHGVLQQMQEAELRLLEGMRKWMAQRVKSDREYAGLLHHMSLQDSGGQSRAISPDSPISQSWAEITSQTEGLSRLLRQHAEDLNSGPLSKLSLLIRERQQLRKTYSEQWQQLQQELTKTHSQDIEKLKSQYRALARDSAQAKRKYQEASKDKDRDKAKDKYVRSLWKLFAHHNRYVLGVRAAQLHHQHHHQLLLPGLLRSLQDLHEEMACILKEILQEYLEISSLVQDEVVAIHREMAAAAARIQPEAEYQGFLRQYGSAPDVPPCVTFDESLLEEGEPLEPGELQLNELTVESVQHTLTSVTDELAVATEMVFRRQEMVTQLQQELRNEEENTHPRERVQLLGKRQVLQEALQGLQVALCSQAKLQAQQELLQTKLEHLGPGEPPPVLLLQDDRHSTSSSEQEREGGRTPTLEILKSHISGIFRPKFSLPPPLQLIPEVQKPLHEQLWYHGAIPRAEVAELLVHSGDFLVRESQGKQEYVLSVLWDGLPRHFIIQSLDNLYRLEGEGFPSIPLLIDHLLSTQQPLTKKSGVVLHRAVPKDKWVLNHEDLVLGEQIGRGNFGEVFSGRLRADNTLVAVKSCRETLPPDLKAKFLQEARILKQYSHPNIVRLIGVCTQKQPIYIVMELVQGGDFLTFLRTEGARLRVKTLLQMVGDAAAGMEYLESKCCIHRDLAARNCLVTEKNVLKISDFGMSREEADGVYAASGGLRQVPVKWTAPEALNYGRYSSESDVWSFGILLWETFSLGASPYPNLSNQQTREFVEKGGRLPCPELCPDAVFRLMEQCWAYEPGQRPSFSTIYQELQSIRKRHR
MAP3K9 (human), sequence (P80192 whole entry, looked up): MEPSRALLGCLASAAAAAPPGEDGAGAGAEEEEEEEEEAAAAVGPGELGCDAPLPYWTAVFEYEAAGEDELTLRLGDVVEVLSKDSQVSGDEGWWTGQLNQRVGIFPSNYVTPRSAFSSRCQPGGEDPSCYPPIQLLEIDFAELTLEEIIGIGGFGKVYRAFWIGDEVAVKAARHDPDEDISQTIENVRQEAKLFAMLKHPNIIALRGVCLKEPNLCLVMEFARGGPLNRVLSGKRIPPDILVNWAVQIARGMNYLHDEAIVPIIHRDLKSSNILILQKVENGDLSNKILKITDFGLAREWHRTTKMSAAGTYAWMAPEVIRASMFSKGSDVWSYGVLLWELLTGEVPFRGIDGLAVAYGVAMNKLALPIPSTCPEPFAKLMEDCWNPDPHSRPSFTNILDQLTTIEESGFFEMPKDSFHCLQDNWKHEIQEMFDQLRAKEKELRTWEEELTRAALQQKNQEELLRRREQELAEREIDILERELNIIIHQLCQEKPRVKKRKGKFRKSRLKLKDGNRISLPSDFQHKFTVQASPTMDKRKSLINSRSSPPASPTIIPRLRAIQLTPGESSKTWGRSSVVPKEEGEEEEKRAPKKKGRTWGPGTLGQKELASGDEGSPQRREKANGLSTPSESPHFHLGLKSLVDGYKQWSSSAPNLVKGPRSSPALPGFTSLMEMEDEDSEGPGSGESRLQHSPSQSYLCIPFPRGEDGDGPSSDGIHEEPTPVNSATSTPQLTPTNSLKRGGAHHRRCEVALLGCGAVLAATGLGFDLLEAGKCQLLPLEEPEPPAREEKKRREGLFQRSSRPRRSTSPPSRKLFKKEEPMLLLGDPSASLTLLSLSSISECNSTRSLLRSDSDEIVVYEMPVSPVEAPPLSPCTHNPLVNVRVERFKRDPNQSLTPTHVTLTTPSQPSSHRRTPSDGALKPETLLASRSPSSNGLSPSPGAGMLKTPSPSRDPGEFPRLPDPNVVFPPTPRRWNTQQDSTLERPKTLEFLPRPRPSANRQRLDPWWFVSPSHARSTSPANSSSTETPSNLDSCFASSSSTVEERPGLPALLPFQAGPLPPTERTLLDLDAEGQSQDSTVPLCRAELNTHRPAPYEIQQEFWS
TSSK1B (human), sequence (Q9BXA7 whole entry, looked up): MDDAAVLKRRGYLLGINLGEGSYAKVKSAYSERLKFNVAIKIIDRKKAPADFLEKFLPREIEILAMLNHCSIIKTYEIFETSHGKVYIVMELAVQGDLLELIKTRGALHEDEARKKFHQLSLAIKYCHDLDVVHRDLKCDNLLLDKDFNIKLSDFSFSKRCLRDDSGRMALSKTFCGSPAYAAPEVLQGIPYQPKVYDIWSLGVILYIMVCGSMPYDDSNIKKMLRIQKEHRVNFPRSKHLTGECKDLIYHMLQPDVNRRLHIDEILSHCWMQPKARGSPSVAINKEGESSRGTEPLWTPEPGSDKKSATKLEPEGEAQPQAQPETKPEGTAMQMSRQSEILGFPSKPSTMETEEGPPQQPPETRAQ
BLK (human), sequence (P51451 whole entry, looked up): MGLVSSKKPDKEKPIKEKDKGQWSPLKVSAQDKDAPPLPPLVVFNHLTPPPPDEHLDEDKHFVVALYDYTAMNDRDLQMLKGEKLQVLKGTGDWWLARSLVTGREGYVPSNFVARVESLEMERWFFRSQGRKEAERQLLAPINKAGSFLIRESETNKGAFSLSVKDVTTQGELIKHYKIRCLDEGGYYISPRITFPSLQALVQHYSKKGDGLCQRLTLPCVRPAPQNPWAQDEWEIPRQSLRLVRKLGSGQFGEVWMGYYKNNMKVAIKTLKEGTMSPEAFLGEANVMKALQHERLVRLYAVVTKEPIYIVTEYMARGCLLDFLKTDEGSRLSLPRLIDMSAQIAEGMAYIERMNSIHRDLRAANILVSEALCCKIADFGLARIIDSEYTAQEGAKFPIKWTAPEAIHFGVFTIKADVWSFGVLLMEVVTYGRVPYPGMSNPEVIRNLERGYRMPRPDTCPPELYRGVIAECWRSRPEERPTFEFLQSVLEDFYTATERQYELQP
PIM2 (human), sequence (Q9P1W9 whole entry, looked up): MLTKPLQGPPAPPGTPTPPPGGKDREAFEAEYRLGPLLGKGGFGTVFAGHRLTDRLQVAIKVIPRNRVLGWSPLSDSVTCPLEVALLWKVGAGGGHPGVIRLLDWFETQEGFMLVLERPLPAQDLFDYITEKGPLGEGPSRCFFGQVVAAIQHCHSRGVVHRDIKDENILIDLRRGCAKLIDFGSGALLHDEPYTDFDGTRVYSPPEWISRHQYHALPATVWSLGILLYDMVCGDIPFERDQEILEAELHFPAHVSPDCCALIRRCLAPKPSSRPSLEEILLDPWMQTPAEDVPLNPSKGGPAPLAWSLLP

With `O=S(=O)(c1cccc2cnccc12)N1CCCNCC1` the residual activity (ABL1 (human)) was 96.8%, the residual activity (CDK3 CCNE1 (human)) was 76.6% and the residual activity (PLK2 (human)) was 100%. The residual activity (AURKC (human)) was 97.4%, the residual activity (CDK7 CCNH MNAT1 (human)) was 95.5% and the residual activity (ROS1 (human)) was 101%. For the same compound, the residual activity (EPHA1 (human)) was 79.9%, the residual activity (MAP3K5 (human)) was 88.7% and the residual activity (LTK (human)) was 95.2%. It also gave a residual activity (CDK1 CCNB1 (human)) of 92.7%, a residual activity (MAP3K9 (human)) of 94.4% and a residual activity (DYRK4 (human)) of 97.9%. It also gave a residual activity (FLT1 (human)) of 90%, a residual activity (NEK4 (human)) of 90.7% and a residual activity (CSNK1G3 (human)) of 85%. The residual activity (RAF1 (human)) was 98.3%, the residual activity (IGF1R (human)) was 112% and the residual activity (PIM2 (human)) was 93.2%. For the same compound, the residual activity (GRK6 (human)) was 95.4%, the residual activity (RIPK2 (human)) was 86.4% and the residual activity (MST4 (human)) was 90%. It also gave a residual activity (SRPK1 (human)) of 92.6%, a residual activity (BTK (human)) of 96.5% and a residual activity (INSRR (human)) of 99.7%. The residual activity (DYRK1A (human)) was 99.4%, the residual activity (BLK (human)) was 85.3% and the residual activity (KDR (human)) was 86.9%. The residual activity (BMX (human)) was 104%, the residual activity (GRK5 (human)) was 109% and the residual activity (PRKCI (human)) was 87.2%. For the same compound, the residual activity (CSNK1G2 (human)) was 93.7%, the residual activity (LRRK2 (human)) was 94.2% and the residual activity (RPS6KB1 (human)) was 76.6%. It also gave a residual activity (MAP4K4 (human)) of 44.1%, a residual activity (FES (human)) of 121% and a residual activity (STK10 (human)) of 103%. It also gave a residual activity (PAK6 (human)) of 87%, a residual activity (TSSK1B (human)) of 93.5% and a residual activity (MAPK8 (human)) of 89.7%. It also gave a residual activity (TAOK3 (human)) of 97.3%.

For `CCCC(=O)Oc1ccc2[nH]c(C(=O)c3cc4ccccc4[nH]3)cc2c1`, the residual activity (ABL1 (human)) was 100%, the residual activity (CDK3 CCNE1 (human)) was 88.2% and the residual activity (DMPK (human)) was 94.4%. For the same compound, the residual activity (PLK2 (human)) was 101%, the residual activity (AURKC (human)) was 94.9% and the residual activity (CDK7 CCNH MNAT1 (human)) was 98.7%. For the same compound, the residual activity (ROS1 (human)) was 97%, the residual activity (EPHA1 (human)) was 88.8% and the residual activity (MAP3K5 (human)) was 103%. It also gave a residual activity (LTK (human)) of 87.5%, a residual activity (CDK1 CCNB1 (human)) of 106% and a residual activity (MAP3K9 (human)) of 97.7%. The residual activity (DYRK4 (human)) was 86%, the residual activity (FLT1 (human)) was 89.7% and the residual activity (NEK4 (human)) was 96.4%. It also gave a residual activity (CSNK1G3 (human)) of 82.7%, a residual activity (RAF1 (human)) of 98.7% and a residual activity (IGF1R (human)) of 88.3%. The residual activity (PIM2 (human)) was 101%, the residual activity (GRK6 (human)) was 95.8% and the residual activity (RIPK2 (human)) was 90%. For the same compound, the residual activity (MST4 (human)) was 94.8%, the residual activity (SRPK1 (human)) was 105% and the residual activity (BTK (human)) was 88.2%. For the same compound, the residual activity (INSRR (human)) was 97.9%, the residual activity (BLK (human)) was 102% and the residual activity (KDR (human)) was 90.4%. The residual activity (BMX (human)) was 97.4%, the residual activity (GRK5 (human)) was 100% and the residual activity (PRKCI (human)) was 99.2%. It also gave a residual activity (NEK3 (human)) of 95.5%, a residual activity (CSNK1G2 (human)) of 95.5% and a residual activity (LRRK2 (human)) of 101%. For the same compound, the residual activity (RPS6KB1 (human)) was 94.5%, the residual activity (MAP4K4 (human)) was 97.3% and the residual activity (FES (human)) was 97.8%. The residual activity (STK10 (human)) was 94.3%, the residual activity (PAK6 (human)) was 94.5% and the residual activity (TSSK1B (human)) was 78.1%. It also gave a residual activity (MAPK8 (human)) of 84% and a residual activity (TAOK3 (human)) of 86.7%.

In the case of `Oc1cccc(-c2nc(N3CCOCC3)c3oc4ncccc4c3n2)c1`, the residual activity (ABL1 (human)) is reported as 94.4%, the residual activity (CDK3 CCNE1 (human)) is reported as 93.9% and the residual activity (DMPK (human)) is reported as 99.5%. For the same compound, the residual activity (PLK2 (human)) was 94.7%, the residual activity (AURKC (human)) was 98.1% and the residual activity (CDK7 CCNH MNAT1 (human)) was 99.9%. For the same compound, the residual activity (ROS1 (human)) was 93.1%, the residual activity (EPHA1 (human)) was 87.8% and the residual activity (MAP3K5 (human)) was 101%. The residual activity (LTK (human)) was 97.6%, the residual activity (CDK1 CCNB1 (human)) was 108% and the residual activity (MAP3K9 (human)) was 103%. For the same compound, the residual activity (DYRK4 (human)) was 96.6%, the residual activity (FLT1 (human)) was 83.6% and the residual activity (NEK4 (human)) was 90.4%. The residual activity (CSNK1G3 (human)) was 99.9%, the residual activity (RAF1 (human)) was 79.1% and the residual activity (IGF1R (human)) was 97.1%. It also gave a residual activity (PIM2 (human)) of 96.9%, a residual activity (GRK6 (human)) of 98.2% and a residual activity (RIPK2 (human)) of 87.4%. The residual activity (MST4 (human)) was 98.6%, the residual activity (SRPK1 (human)) was 105% and the residual activity (BTK (human)) was 95.2%. For the same compound, the residual activity (INSRR (human)) was 114%, the residual activity (DYRK1A (human)) was 94.3% and the residual activity (BLK (human)) was 101%. It also gave a residual activity (KDR (human)) of 85.9%, a residual activity (BMX (human)) of 101% and a residual activity (PRKCI (human)) of 94.9%. It also gave a residual activity (NEK3 (human)) of 92.9%, a residual activity (CSNK1G2 (human)) of 88.1% and a residual activity (LRRK2 (human)) of 101%. The residual activity (RPS6KB1 (human)) was 106%, the residual activity (MAP4K4 (human)) was 91.4% and the residual activity (FES (human)) was 98.8%. For the same compound, the residual activity (STK10 (human)) was 92.1%, the residual activity (PAK6 (human)) was 105% and the residual activity (TSSK1B (human)) was 93.4%. For the same compound, the residual activity (MAPK8 (human)) was 89.8% and the residual activity (TAOK3 (human)) was 86.8%.
